Experimental data: the PolyMetriX glass transition set

SMILES | glass transition temperature [°C]
*CC(*)(C)C(=O)OCCOCCOCC1COCCOCCOCCO1 (repeat unit) | 10.00
*CCCCCCCCCCOc1ccc(/C=C2\CCC/C(=C\c3ccc(O*)cc3)C2=O)cc1 (repeat unit) | 85.00
*C(=O)OCCCCCCCCCCCCOC(=O)c1ccc(N2C(=O)c3ccc(*)cc3C2=O)cc1 (repeat unit) | 47.00
*CCCCCCCCCCCCCCCCOC(=O)CC/C=C/CCC(=O)O* (repeat unit) | -18.00
*/C=C/C1=C(*)CC(C(=O)OCC)(C(=O)OCC)C1 (repeat unit) | 27.7
*c1ccc(Oc2ccc(N3C(=O)C4CCC(C5CCC6C(=O)N(*)C(=O)C6C5)CC4C3=O)cc2)cc1 (repeat unit) | 257.00
*c1ccc(Cc2ccc(N3C(=O)c4ccc(Oc5ccc(C(C)(C)c6ccc(Oc7ccc8c(c7)C(=O)N(*)C8=O)cc6)cc5)cc4C3=O)cc2)cc1 (repeat unit) | 217.00
*Oc1ccc(NC(=O)Nc2cc(NC(=O)Nc3ccc(*)cc3)ccc2C)cc1 (repeat unit) | 269.00
*C(=O)Nc1ccc(C(=O)Nc2ccc(NC(=O)c3ccc4[nH]c(-c5ccc(-c6nc7cc(*)ccc7[nH]6)cc5)nc4c3)cc2)cc1 (repeat unit) | 300.00
*c1ccc2c(c1)C(=O)N(c1ccc(Oc3ccc(C(=O)c4cccc(N5C(=O)c6ccc(C(*)(C(F)(F)F)C(F)(F)F)cc6C5=O)c4)cc3)cc1)C2=O (repeat unit) | 242.00
*CC(*)C(=O)OCCCOCC (repeat unit) | -61.50
*Oc1ccc(C2(c3ccc(OC(=O)CCCC(*)=O)cc3)c3ccccc3-c3ccccc32)cc1 (repeat unit) | 207.00
*c1ccc(Oc2cccc(NC(=O)c3cc(NC(=O)c4ccc(OC(C)=O)cc4)cc(C(=O)Nc4cccc(Oc5ccc(-c6nnc(*)o6)cc5)c4)c3)c2)cc1 (repeat unit) | 270.00
*c1ccc2c(c1)C(=O)N(c1ccc(OC(C)COc3ccc(N4C(=O)c5ccc(C(*)(C(F)(F)F)C(F)(F)F)cc5C4=O)cc3)cc1)C2=O (repeat unit) | 234.00
*CC(*)c1ccc(C(C)(O)CCCC)cc1 (repeat unit) | 90.00
*CC(*)(C)C(=O)Oc1ccc(C(=O)Oc2ccc(Oc3ccccc3)cc2)cc1 (repeat unit) | 74.00
*c1cccc(OP(=O)(Oc2cccc(-n3c(=O)c4cc5c(=O)n(*)c(=O)c5cc4c3=O)c2)c2ccccc2)c1 (repeat unit) | 191.00
*c1ccc(OCCN(CC)c2ccc(-c3ccc(C(=C(C#N)C#N)c4ccc(-c5ccc(N(CC)CC)cc5)s4)s3)cc2)c(-c2cc(-c3ccccc3)c3cc(Oc4ccc5nc(*)cc(-c6ccccc6)c5c4)ccc3n2)c1 (repeat unit) | 205.00
*CCCCCCOc1ccc(/C=C2\CC/C(=C\c3ccc(OCCCCCCOP(=O)(O*)OC)c(OC)c3)C2=O)cc1OC (repeat unit) | 74.00
*Oc1ccc(NC(=O)c2ccc(C(c3ccc(C(=O)Nc4ccc(Oc5ccc(C6(c7ccc(*)cc7)C7CC8CC(C7)CC6C8)cc5)cc4)cc3)(C(F)(F)F)C(F)(F)F)cc2)cc1 (repeat unit) | 241.00
*CCCCCCCCCCOc1c(OC)cc(/C=C/c2ccc(/C=C/c3cc(OC)c(O*)c(OC)c3)cc2)cc1OC (repeat unit) | 68.50
*c1ccc(Cc2ccc(N3C(=O)CC(Nc4ccc(N(c5ccc(Nc6ccc([N+](=O)[O-])cc6)cc5)c5ccc(NC6CC(=O)N(*)C6=O)cc5)cc4)C3=O)cc2)cc1 (repeat unit) | 324.00
*c1cc(N2C(=O)c3ccc(Oc4cccc5c(Oc6ccc7c(c6)C(=O)N(*)C7=O)cccc45)cc3C2=O)cc(C(F)(F)F)c1 (repeat unit) | 250.00

SMILES | glass transition temperature [°C]
*C1C(*)C2CC1C(C(=O)OCCc1ccccc1)C2C(=O)OCCc1ccccc1 (repeat unit) | 254.00
*CC1CCCC(CN2C(=O)c3ccc(-c4ccc5c(c4)C(=O)N(*)C5=O)cc3C2=O)C1 (repeat unit) | 234.00
*/C=C/c1cc(OCC2CC3CC2C2CCCC32)c(*)cc1OC (repeat unit) | 174.00
*Oc1ccc(Oc2ccc(C(=O)c3ccc(C(=O)c4ccc(*)cc4)cc3)cc2)cc1-c1cccc(C)c1 (repeat unit) | 159.00
*CC(CS(=O)(=O)CCC)O* (repeat unit) | 43.00
*C(=O)Oc1ccc(OC(=O)c2ccc3c(c2)C(=O)N(c2ccc(S(=O)(=O)c4ccc(N5C(=O)c6ccc(*)cc6C5=O)cc4)cc2)C3=O)c(C(C)(C)C)c1 (repeat unit) | 179.00
*CC(*)(C)C(=O)OCCO[N+](=O)[O-] (repeat unit) | 55.00
*CC(C)(CO*)COCC(F)(F)C(F)(F)C(F)(F)F (repeat unit) | -45.00
*c1ccc([Si](c2ccccc2)(c2ccccc2)c2ccc(-c3nnc(*)o3)cc2)cc1 (repeat unit) | 262.00
*CC(*)C(=O)OCCOCC (repeat unit) | -50.00
*OCCOC(=O)CCCC(=O)OCCOc1nc(-c2ccc(OCCCC)cc2)nc(*)c1-c1ccc(OCCCC)cc1 (repeat unit) | 37.00
*c1cccc(Cc2cccc(N3C(=O)c4ccc([Si](C)(C)c5ccc6c(c5)C(=O)N(*)C6=O)cc4C3=O)c2)c1 (repeat unit) | 238.00
*CC(*)c1cc(C)cc(C)c1 (repeat unit) | 112.00
*CC(C)(CC)C(=O)O* (repeat unit) | -9.00
*OC(=O)OC1CC2CC(*)CC(C1)O2 (repeat unit) | 207.00
*CCN(CCOC(=O)NCC1(C)CC(NC(=O)O*)CC(C)(C)C1)c1ccc(C=C(C#N)C#N)cc1 (repeat unit) | 145.00
*c1ccc(Oc2cccc(Oc3ccc(N4C(=O)c5cccc(Oc6cccc(Oc7cccc8c7C(=O)N(*)C8=O)c6)c5C4=O)cc3)c2)cc1 (repeat unit) | 193.00
*c1ncnc(N(CCCCCCN(*)c2ccccc2)c2ccccc2)n1 (repeat unit) | 72.00
*CCC1C(=O)N(CCC)C(=O)C1* (repeat unit) | 90.40
*Nc1cccc(NC(=O)c2ccc(C(=O)Nc3ccc(C(=O)NC(*)=S)cc3)cc2)c1 (repeat unit) | 273.00
*CC(*)C(=O)OCCSCC (repeat unit) | -71.00
*Oc1ccc(-c2ccc(OC(=O)c3cccc(C(*)=O)c3)cc2)cc1 (repeat unit) | 185.50
*CC(*)(C)C(=O)OCC(=O)Nc1cc(C)on1 (repeat unit) | 128.00

SMILES | glass transition temperature [°C]
*Oc1ccc2ccc(Oc3ccc(C(=O)Nc4ccc(Oc5ccc(C(C)(c6ccccc6)c6ccc(Oc7ccc(NC(=O)c8ccc(*)cc8)cc7)cc6)cc5)cc4)cc3)cc2c1 (repeat unit) | 177.00
*Oc1ccc(Oc2ccc(C(=O)Nc3ccc(Cc4ccc(NC(=O)c5ccc(*)cc5)cc4)cc3)cc2)cc1 (repeat unit) | 216.00
*Nc1ccc(C(c2ccc(NC(=O)c3cc(NC(=O)CCCN4C(=O)c5ccccc5C4=O)cc(C(*)=O)c3)cc2)(C(F)(F)F)C(F)(F)F)cc1 (repeat unit) | 240.00
*Oc1ccc(Oc2ccc(C(=O)c3ccc(C(=O)c4ccc(*)cc4)cc3)cc2)cc1-c1ccc(S(=O)(=O)O)cc1 (repeat unit) | 174.00
*C(=O)Nc1ccc(S(=O)(=O)c2ccc(NC(=O)c3ccc4[nH]c(-c5cccc(-c6nc7cc(*)ccc7[nH]6)c5)nc4c3)cc2)cc1 (repeat unit) | 312.00
*c1ccc(-c2ccc(-c3nnc(-c4ccc([Si](c5ccccc5)(c5ccccc5)c5ccc(-c6nnc(*)o6)cc5)cc4)o3)cc2)cc1 (repeat unit) | 278.00
*OC(COCCCC)COC(*)=O (repeat unit) | -22.00
*Oc1ccc(-c2ccc(OC(=O)c3ccc(C(*)=O)cc3)cc2)cc1 (repeat unit) | 267.00
*Nc1ccc(NC(=O)CCCCCCCC(*)=O)cc1 (repeat unit) | 130.00
*C(F)(F)C(*)(F)C(F)(F)F (repeat unit) | 158.50
*CC(*)c1ccc(Cl)c([N+](=O)[O-])c1 (repeat unit) | 132.90
*Oc1ccc(S(=O)(=O)c2ccc(Oc3ccc(/C=C4\CCCC/C(=C\c5ccc(Oc6ccc(S(=O)(=O)c7ccc(Oc8ccc(C(C)(C)c9ccc(*)cc9)cc8)cc7)cc6)cc5)C4=O)cc3)cc2)cc1 (repeat unit) | 188.00
*Oc1ccc(C(C)(C)c2ccc(OC(=O)SCCCCCCSC(*)=O)cc2)cc1 (repeat unit) | 58.00
*CCCCCCN1C(=O)c2ccc(C(=O)Oc3ccc(-c4ccc(OC(=O)c5ccc6c(c5)C(=O)N(*)C6=O)cc4)cc3)cc2C1=O (repeat unit) | 133.00
*c1ccc(OC(=O)c2ccc(C(=O)Oc3ccc(C4(*)NC(=O)c5ccccc54)cc3)cc2)cc1 (repeat unit) | 327.00
*c1ccc(C(=O)Nc2ccc(Oc3ccc(Oc4ccc(NC(=O)c5ccc(Oc6ccc(-c7nn(*)c(=O)c8ccccc78)c7ccccc67)cc5)cc4C(F)(F)F)cc3)c(C(F)(F)F)c2)cc1 (repeat unit) | 281.50
*CC(*)c1cc(C(=O)OCCCCCC)ccc1-c1ccc(OCCCCCCCC)cc1 (repeat unit) | 64.00
*/C=C/c1ccc(/C=C/[Si](C)(CCC(F)(F)F)c2ccc([Si](*)(C)CCC(F)(F)F)cc2)cc1 (repeat unit) | 55.70
*c1ccc2c(c1)C(=O)N(c1ccc(Oc3ccc(C(=O)c4cccc(N5C(=O)c6ccc(C(*)(C(F)(F)F)C(F)(F)F)cc6C5=O)c4)cc3)c(C(F)(F)F)c1)C2=O (repeat unit) | 222.00
*CC(*)c1ccc(C[Si](C)(C)C)cc1 (repeat unit) | 82.00
*/C=C(\F)C(F)(F)C* (repeat unit) | -35.00
